Consider one compound from paper PMC11214487, “YZL-51N functions as a selective inhibitor of SIRT7 by NAD^+ competition to impede DNA damage repair” (iScience, 2024).

In assay [1] the target is T1, SIRT7 (Homo sapiens, UniProt Q9NRC8).
T1 construct: His-tagged full length SIRT7 protein expression from BL21 bacterial cells; His; made in house; host or cells: E. coli BL21
T1 sequence (Q9NRC8 1-400): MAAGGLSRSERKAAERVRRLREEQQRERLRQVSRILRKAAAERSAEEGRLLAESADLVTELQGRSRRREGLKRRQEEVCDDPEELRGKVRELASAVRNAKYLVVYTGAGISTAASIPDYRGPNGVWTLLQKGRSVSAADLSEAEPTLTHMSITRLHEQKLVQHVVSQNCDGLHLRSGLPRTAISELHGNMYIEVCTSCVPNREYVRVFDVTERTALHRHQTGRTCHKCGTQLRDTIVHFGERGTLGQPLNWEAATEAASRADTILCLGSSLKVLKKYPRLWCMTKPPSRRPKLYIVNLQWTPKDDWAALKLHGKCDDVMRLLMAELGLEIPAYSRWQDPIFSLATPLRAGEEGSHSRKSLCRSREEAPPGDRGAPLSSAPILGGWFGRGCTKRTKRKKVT
Briefly: Fluor de Lys (FDL) SIRT7 deacetylase assay. Format: biochemical. From the text:
To assess SIRT7 deacetylase activity using Fluor de Lys (FDL) assays, the peptide […]∗QLAGGK was synthesized and characterized as a substrate using fluorophore 7-methoxycoumarin-4-acetic acid (∗, MCA) (Figures 1A, S1A, and S1B). In the presence of both SIRT7 and NAD^+, a luminescence response was detected in the linear range (y = 31.88x + 2396, R^2 = 0.9742) (Figure 1B). We screened our preserved library of 242 natural products to find potential SIRT7 inhibitors.
For in vitro analysis of SIRT7 deacetylation, the reaction system contained 10 μg His-SIRT7, 0.5 mM NAD^+, 10 μM […](MCA)QLAGGK (synthesized by QYAOBIO; details in the supplementary files), 50 μM potential compound or 3 mM NAM, and assay buffer (10 mM Tris-HCl pH 8.0, 4 mM MgCl2, 0.2 mM DTT and 10% Glycerol). The deacetylation reactions were incubated at 37°C for 90 min. The fluorescence intensity was measured with a microplate reader (Synergy H4 Hybrid Reader, Biotek) at an excitation wavelength of 260 nm and detected at an emission spectrum of 300–600 nm. The IC50 values were calculated at 450 nm emission by GraphPad Prism 8.

The next assay deals with SIRT6 (Homo sapiens, UniProt Q8N6T7). Put plainly: Cellular thermal shift assay in HCT116 cell lysates. Also noted: endogenous in cells; host or cells: HCT116. It counts as binding. The note with it: 20 μM. How it is done: Cellular thermal shift assays were performed according to previously reported methods with some modifications.[66] Briefly, HCT116 cells were lysed with RIPA buffer and incubated with 20 μM YZL-51N or DMSO for 1 h on ice. Subsequently, cell lysates were divided into 70 μL aliquots and heated individually at different temperatures for 4 min following by cooling on ice. The heated lysates were centrifuged, and 50 μL supernatants were taken for SDS-PAGE and immunoblotting analysis with the indicated antibodies.
SIRT6, sequence (Q8N6T7 whole entry): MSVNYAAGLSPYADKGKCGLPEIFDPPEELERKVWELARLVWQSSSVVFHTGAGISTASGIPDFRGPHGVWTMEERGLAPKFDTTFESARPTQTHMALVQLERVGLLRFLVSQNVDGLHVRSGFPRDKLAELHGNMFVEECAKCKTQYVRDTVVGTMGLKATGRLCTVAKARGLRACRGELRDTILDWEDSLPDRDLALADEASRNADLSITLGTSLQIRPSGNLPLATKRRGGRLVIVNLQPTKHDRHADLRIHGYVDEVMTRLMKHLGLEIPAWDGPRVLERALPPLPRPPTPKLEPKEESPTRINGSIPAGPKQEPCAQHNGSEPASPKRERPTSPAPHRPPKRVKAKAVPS

For assay [2], the target named is T1, SIRT7. Briefly: Dot blot assay of SIRT7-mediated H3K18ac peptide deacetylation. It counts as biochemical. From the text: To avoid the bias of the fluorescence assay, we also performed dot blot assays for the effects of natural compounds on SIRT7-mediated deacetylation of H3K18ac peptides in vitro (Figures S2A and S2B). In this system, SIRT7 mediated a dose-dependent deacetylation of H3K18ac (Figure 1D). […] Based on comparisons of all the candidates, we selected YZL-51N as the best for further investigation (Figure 1F). […] Thus, P. americana derived YZL-51N was confirmed as an identified SIRT7 inhibitor using parallel peptide-based screening platforms.
For dot blot assays, the reaction system containing 10 μg His-SIRT7, 0.5 mM NAD^+, 10 μM biotin-H3K18ac peptides and 50 μM potential compound was mixed and incubated at 37°C for 90 min. Samples were transferred to a polyvinylidene difluoride (PVDF) membrane, and then blocked with 5% skimmed milk. The blots were probed with H3K18ac primary antibody at RT for 2 h and then incubated with secondary antibody at RT for 1h. The bands were visualized using ECL substrates (Thermo Fisher, USA) on Tanon 5200SF Imaging System.

Assay [3] has as its target T1, SIRT7. Put plainly: Surface plasmon resonance (SPR) binding assay. How it is done:
All SPR measurements were performed on Biacore T200 instrument (GE Healthcare) with running buffer (PBS+5% DMSO) at room temperature. The bacterially purified His-SIRT7 was covalently immobilized onto Series S Sensor Chip CM5 by a standard amino-coupling procedure in 10 mM sodium acetate (pH 5.5). Two-fold serial dilutions of YZL-51N or NAD^+ in 5% DMSO passed through the sensor chip at 30 μL/min for 120 s, followed by 240 s of dissociation flow. The KD value was calculated based on the concentration dependence of the observed steady-state response using Biacore T200 Evaluation software Version 1.0 (GE Healthcare).
For orientation: In SPR one partner is held on a chip, and binding of the other changes the refractive index at the surface.

The subject of a further assay is HCT116 xenograft. Briefly: HCT116 xenograft model. It counts as in vivo, BALB/c nude mice. The protocol: For the xenograft models, HCT116 cells (5 x 10^6 in 100 μL of PBS) were inoculated subcutaneously into the dorsal flank of the 4-week-old male BALB/c nude mice. The mice were randomly divided into control, drug treatment, IR treatment and combination treatment groups. Control group was injected with PBS. Drug treatment group was treated with 15 mg/kg YZL-51N every 3 d. In IR treatment group, the tumor site was irradiated with 3 Gy every 3 d. The combination group was treated with both 15 mg/kg YZL-51N and 3 Gy IR. The tumor size was estimated from the measurement of the longest diameter across the tumor and the corresponding perpendicular diameter. Tumor volumes were assessed on indicated days by a caliper and calculated using the formula: volume = (length x width[2])/2.

Read-outs that look alike come from different tables or passages of the source.

In general, inhibition refers to how much of the control response was suppressed. In general, IC50 refers to the midpoint of a concentration-inhibition curve. Usually EC50 stands for the concentration giving half of the maximal effect. Broadly, the Kd is a measure of binding affinity in units of concentration. The low end stands for higher affinity, the high end for lower affinity. For orientation: kon means the rate constant with which the complex forms.

Method for HCT116 cells: Cells were seeded into 96 well plates (4,000 cells/well). […] The cells were then washed and re-cultured in fresh medium for 48 h. […] Formazan were generated by the addition of 100 μL DMSO and shaking for 30 min. The absorbance of samples was measured at 570 nm using a microtiter plate reader (BioTek).

Take `COC(=O)/C(=C\C(=O)c1ccc(O)c(O)c1)c1ccc(O)c(O)c1` [YZL-51N]: at SIRT7 [1] (50 μM compound, 37°C, 90 min), the inhibition at 50 µM was found to be 71.1%. In addition, on SIRT7 [1] (0.5 mM NAD+, 10 μM peptide, read-out: FDL assay SIRT7 inhibition IC50), the IC50 came out at 12.7 µM. The “Effect on the melting curve” value at SIRT6 is “no obvious effect”. Also, the “Rescue of H3K18 acetylation” value at SIRT7 [2] (dot blot screening, 50 μM) was “rescued H3K18 acetylation”. For the same compound, the EC50 on SIRT7 [2] (read-out: Dot blot assay H3K18ac rescue EC50) stood at 13.5 µM. Further, the “disassociation rate (koff)” value on SIRT7 [3] is 0.0006315 s⁻¹. In addition, binding on SIRT7 [3] (immobilized His-SIRT7) was characterised by a dissociation constant (Kd) of 1.02 µM. Also, the kon at SIRT7 [3] (read-out: association rate (kon)) was 618 M⁻¹ s⁻¹. Besides, the “Cell proliferation (%, Mean ± SD)” value in the assay on HCT116 cells (single agent 5 μM) is on record as 94.8 ± 5.0%; in the assay on HCT116 cells (single agent 10 μM), 86.9 ± 5.7%; with HCT116 cells (single agent 20 μM), 76.4 ± 6.0%; in the assay on HCT116 cells (single agent 40 μM) it was 42.8 ± 4.8%; with HCT116 cells (single agent 80 μM), 29.9 ± 5.4%; in the assay on HCT116 cells (single agent 160 μM), 17.7 ± 5.3%. Further, the “Tumor therapy, co-treatment with IR” value with HCT116 xenograft (15 mg/kg YZL-51N and 3 Gy IR every 3 days) was “more effective”. Also, the Tumor volume result in the assay on HCT116 xenograft (15 mg/kg every 3 days, alone) is on record as “reduction on the tumor volume”.
